Measured values: US20260248833A1, “PYRIMIDINE NUCLEOSIDE TREATMENTS” (The Children`s Medical Center Corporation, priority 2022, published 2026)
Entries after “also recorded” stand apart in the source; their conditions may differ.

Key:
293T cells [1] = experiment: Polar metabolite profiling by LC-MS of dT treated 293T cells; format: cell-based, human
Method: Liquid Chromatography-Mass Spectrometry: extraction of and quantification of polar metabolites was performed as described using HPLC grade methanol (Fisher Scientific). If a given species was detected in multiple ion modes, the mode with the highest average signal in the untreated cells was used for analysis.

293T cells [2] = experiment: Terminal restriction fragment (TRF) Southern blot telomere length, 293T cells; format: cell-based, human
Method: (§1) Cell culture: K562 cells (ATCC) were grown in RPMI1 1640 (Gibco) media supplemented with 10% fetal bovine serum. 293T cells (ATCC) were grown in DMEM (Gibco) supplemented with 10% fetal bovine serum, and were subcultured using 0.05% trypsin (Gibco). iPSCs were derived, characterized and cultured as previously described. iPSCs were grown in Essential 8 Media (Life Technologies) supplemented with the ROCK inhibitor Y271632 (Stem Cell Technologies) at 10 μM on plates coated with hES qualitied Matrigel matrix (Corning) and were subcultured using Accutase (Stem Cell Technologies).
(§2) Terminal Restriction Fragment Length Analysis: genomic DNA was isolated from cells using the Invitrogen Purelink Genomic DNA mini kit (Invitrogen). 1-3 μg of gDNA was digested with RsaI and HinfI for 2-3 hrs at 37° C. and loaded onto a 0.6% agarose gel followed by Southern blotting using the Telotaggg Telomere Length Assay Kit (Roche). Quantification was performed using the WALTER webtool.

wild-type iPSCs = experiment: Cell cycle analysis by DAPI staining and flow cytometry, iPSCs; format: cell-based, human; details: 24 hours
Method: (§3) Cell cycle analysis by DNA content staining and flow cytometry: Cells were prepared either for flow-FISH staining as described (for experiments in FIG. 5) or by ethanol fixation (for data in FIG. 6, 27), followed by rehydration and counterstaining using DAPI (BD Biosciences) and analysis on an LSR-II or Fortessa analyzer (BD Biosciences) using BD FACSDiva 8.0.2. Cells were gated on FSC/SSC as described in FIG. 6d using FlowJo V10.7.1.

[3] = tested on: iPSCs derived from TBD patients; experiment: TRF Southern blot telomere length, TBD patient-derived iPSCs; format: cell-based, human; details: for telomere length increase / telomere elongation: 50 μM dT for three weeks; for telomere elongation: panel of TBD patient iPSCs (TERC, DKC1, PARN)
Method: as §1, §2

primary fibroblasts = experiment: Telomere lengthening from dT with TERT expression in primary fibroblasts; format: cell-based; details: primary fibroblasts (FIG. 30A)
293T cells [4] = experiment: Cell growth curves by hemocytometry, 293T cells; format: cell-based
Method: Quantification of cell growth was performed using hemocytometry with trypan blue staining to identify dead cells. For growth curves, 50k cells were plated per 12 well or 100k cells were plated per 6 well and cells were passaged when confluent, counted using a hemocytometer, and replated at equal numbers in fresh media.

K562 cells = experiment: Cell cycle analysis by DAPI staining and flow cytometry, K562 cells; format: cell-based, human
Method: as §3

[5] = tested on: T-free super-telomerase expressing cells (293T TERC-null); experiment: Slot blot of GGAAAG repeat content in cellular DNA; format: cell-based, human
Method: Slot blotting: slot blotting was performed as described with minor modifications. Briefly, DNA concentration was normalized to 20 ng/μl using a nanodrop spectrophotometer. 3.3 μl of DNA was added to 16.5 μl of denaturation solution (0.5 M NaOH, 1.5 M NaCl) and heated to 55° C. for 30 minutes. 495 μl of neutralization solution (0.5 M Tris-HCl, 1.5 M NaCl) was added to denatured DNA and 156 μl of this solution was added in triplicate to different slots on a Bio-Dot SF Apparatus (Bio-Rad) and blotted onto Hybond N+ Membrane (Cytivia). Membrane preparation and washing was performed as described. For samples with paired GGTTAG and GGAAAG slot blots, the above recipe was doubled, and 156 μl was loaded onto parallel membranes in triplicate on each membrane. After blotting, membranes were hybridized and detected as described above for TRF Southern blots using the probe indicated in the figure. Blots were analyzed using ImageJ. Statistical analysis was performed using Graphpad prism V9.1.0.

human HSPCs = experiment: TRF telomere length of HSPCs; format: cell-based; details: HSPCs treated with dT for 7 days (FIG. 19)
Method: as §2

293T cells [6] = experiment: Cell cycle analysis by DAPI staining and flow cytometry, 293T cells; format: cell-based, human
Method: as §3

[7] = tested on: super-telomerase cells (TERC-null 293T cells transfected with TERT and TERC); experiment: Cell cycle analysis by DAPI staining and flow cytometry, super-telomerase cells; format: cell-based, human; details: 40 μM dT
Method: as §3

[8] = tested on: TERC−/− 293T cells stably expressing dmDNK; experiment: Telomere DNA content blot in dmDNK expressing cells; format: cell-based, human; details: TERT and TERC transfected, nucleoside 24-30 hrs, versus eGFP control
Description: Combining thymidine treatment with expression of a nucleoside kinase to improve efficiency of nucleoside uptake and thereby promote telomere lengthening. combining nucleoside treatment with the expression of TK1, or the deoxynucleoside kinase from Drosophila (dmDNK), either of which can be delivered via mRNA. See FIG. 29A-B. TERC-/- 293T cells stably expressing dmDNK or eGFP (control) were transfected with vectors to express […], then cultured in the indicated doses of nucleoside, followed by analysis of telomere DNA content via blotting and detection with a complementary oligonucleotide probe.

cell cycle progression = details: cited from earlier work
TERC-null 293T cells = experiment: TRF Southern blot telomere length, telomerase-negative TERC-null 293T cells; format: cell-based, human; details: 100 μM thymidine for 7 days
Method: as §1, §2

[9] = cited from earlier work
[10] = increasing doses of dT (FIG. 8a)

Compound: Cc1cn([C@H]2C[C@H](O)[C@@H](CO)O2)c(=O)[nH]c1=O [dT, 1-[(2R,4S,5R)-4-Hydroxy-5-(hydroxymethyl)oxolan-2-yl]-5-methylpyrimidine-2,4 (1H,3H)-dione]
- dTDP levels (293T cells [1]; 100 μM dT): fourfold
- levels of dTTP compared to vehicle (293T cells [1]; 100 μM dT): four-fold
- levels of dTMP, dTDP and dTTP (293T cells [1]; 100 μM dT for 24 hours): increases levels of dTMP, dTDP and dTTP
- doses leading to robust telomere elongation in less than 10 days (293T cells [2]): ≥ 50 µM
- telomere lengthening from dT treatment (293T cells [2]; 50 μM dT for eight days, without SAMHD1 knockdown): ~ 470 bp
- telomere elongation after withdrawal of dT (293T cells [2]; 100 μM dT withdrawn after 15 days): aborted telomere elongation
- telomere length, time-course of dT treatment (293T cells [2]; 100 μM dT, over 33 days): gradually and continually increased telomere length
- telomere length (293T cells [2]; 100 μM of the indicated deoxynucleoside(s) for 9 days): rapidly and robustly increases telomere length; also recorded: promoted telomere lengthening, as did dT alone; also recorded: necessary and sufficient for telomere lengthening
- telomere length (293T cells [2]; 20 or 40 μM dT, 10 days): minimal telomere length changes
- telomere length (293T cells [2]; 20 or 40 μM dT, 34 days): robust telomere lengthening
- persistence of long telomere length after dT withdrawal (293T cells [2]; 100 micromolar thymidine for 15 days then removed): more than two weeks
- telomere lengthening following dT with dNTPase-deficient SAMHD1 H215A or K312A variants (293T cells [2]; 10 days): could not restrict telomere lengthening following dT supplementation
- telomere lengthening following dT treatment with overexpression of wild-type SAMHD1 (293T cells [2]; 10 days, compared to EGFP control): reduced telomere lengthening following dT treatment
- telomere elongation with dT from different manufacturers (293T cells [2]; 10 days, three manufacturers, each of >98% purity): resulted in telomere elongation similarly
- telomere lengthening upon dT treatment in TK1-edited cells (293T cells [2]; CRISPR/Cas9 TK1 edited): complete abrogation of the telomere lengthening; also recorded: prevented telomere lengthening following dT treatment
- telomere lengthening upon dT treatment in TK2-edited cells (293T cells [2]; CRISPR/Cas9 TK2 edited): no difference in telomere length increases compared to control AAVS1-targeted cells; also recorded: TK2 knockout did not
- telomere lengthening, combined SAMHD1 knockdown and dT treatment (293T cells [2]; SAMHD1 targeting shRNA, 50 μM dT for eight days): ~ 800 bp
- telomere elongation, increase of base pairs (bp) per day (293T cells [2]; at 100 μM dT): 96 bp per day
- telomere elongation, increase of base pairs (bp) per day (293T cells [2]; at […] dT): 60 bp per day
- telomere lengthening in TYMS-knockout cells (293T cells [2]; baseline 16 μM dT, plus 100 μM additional dT or 1 mM dU, 10 days): responsive to dT to promote telomere lengthening
- dT doses with minimal effects on cell cycle progression (wild-type iPSCs): ≤ 50 µM
- telomere length increase ([3]; PARN deficient iPSCs): 570 bp
- telomere length ([3]; TBD patient-derived iPSCs with two different mutations, 100 μM dT for 22 days (FIG. 13A)): increased telomere length
- telomere length increase ([3]; TERC deficient iPSCs): 640 bp
- telomere elongation [3]: produced telomere elongation in all cases
- telomere elongation ([3]; listed as thymidine): hundreds of basepairs
- telomere lengthening from dT with expression of TERT (primary fibroblasts): expression of TERT can increase telomere lengthening from dT
- cellular growth (293T cells [4]; 20 or 40 μM dT, 34 days): undetectable changes in cellular growth curves; also recorded: undetectable impact on cellular growth
- dose at which inhibition of growth was detected (293T cells [4]; [10]): ≥ 50 µM
- doses at which growth was minimally impacted (293T cells [4]; [10]): below 100 μM
- dT doses with no detectable changes in cell cycle distribution (K562 cells): below 12.5 μM
- GGAAAG repeat content ([5]; 100 μM dT, 30 hours, wild-type versus T-free super-telomerase): an increase in GGAAAG repeat content exclusively in cells expressing T-free telomerase; also recorded: enhanced repeat synthesis by telomerase
- rescue of GGAAAG repeat synthesis following 5FU treatment ([5]; dT with 5FU): could rescue the inhibition of GGAAAG repeat synthesis following 5FU treatment; also recorded: rescued by dT supplementation
- telomere length (human HSPCs): lengthens telomeres in human HSPCs after just 7 days
- dT doses with no detectable changes in cell cycle distribution (293T cells [6]): below 100 μM
- cell cycle progression at the telomere-active dose [7]: below those that significantly impacted cell cycle progression
- telomere lengthening with expression of a nucleoside kinase (dmDNK) [8]: Enhanced telomere lengthening from the combination of expressing a nucleoside kinase with dT treatment
- doses typically used to synchronize cells in S phase (cell cycle progression): 1 to 2 mM
- telomere length (TERC-null 293T cells): failed to drive detectable telomere elongation
- aqueous solubility [9]: about 50 mg/ml
